Drawing on ChEMBL document CHEMBL1148809, “Biological evaluation, structure-activity relationships, and three-dimensional quantitative structure-activity relationship studies of dihydro-beta-agarofuran sesquiterpenes as modulators of P-glycoprotein-dependent multidrug resistance” (J Med Chem, 2007), this text covers logP, Emax and Ki for three compounds.

Data set [1] can be described thus: Partition coefficient, log P of the compound. The format is physicochemical. To be noted: octanol/water; read-out: LogP.
For a further data set, the target named is P-gp (ABCB1) (Homo sapiens, UniProt P08183). Kind of data set: (§1) Inhibition of human Pgp-mediated DNR transport in NIH3T3 cells by microplate assay. To be noted: mouse, NIH3T3 cells expressing human P-gp, probe DNR; read-out: Imax. The format is cell-based, Mus musculus.
The target of data set [2] is ATP-dependent translocase ABCB1 (Homo sapiens, UniProt P08183). The data set is described as §1. It counts as cell-based, Mus musculus. As to conditions: read-out: Ki.
ATP-dependent translocase ABCB1, sequence (P08183 whole entry): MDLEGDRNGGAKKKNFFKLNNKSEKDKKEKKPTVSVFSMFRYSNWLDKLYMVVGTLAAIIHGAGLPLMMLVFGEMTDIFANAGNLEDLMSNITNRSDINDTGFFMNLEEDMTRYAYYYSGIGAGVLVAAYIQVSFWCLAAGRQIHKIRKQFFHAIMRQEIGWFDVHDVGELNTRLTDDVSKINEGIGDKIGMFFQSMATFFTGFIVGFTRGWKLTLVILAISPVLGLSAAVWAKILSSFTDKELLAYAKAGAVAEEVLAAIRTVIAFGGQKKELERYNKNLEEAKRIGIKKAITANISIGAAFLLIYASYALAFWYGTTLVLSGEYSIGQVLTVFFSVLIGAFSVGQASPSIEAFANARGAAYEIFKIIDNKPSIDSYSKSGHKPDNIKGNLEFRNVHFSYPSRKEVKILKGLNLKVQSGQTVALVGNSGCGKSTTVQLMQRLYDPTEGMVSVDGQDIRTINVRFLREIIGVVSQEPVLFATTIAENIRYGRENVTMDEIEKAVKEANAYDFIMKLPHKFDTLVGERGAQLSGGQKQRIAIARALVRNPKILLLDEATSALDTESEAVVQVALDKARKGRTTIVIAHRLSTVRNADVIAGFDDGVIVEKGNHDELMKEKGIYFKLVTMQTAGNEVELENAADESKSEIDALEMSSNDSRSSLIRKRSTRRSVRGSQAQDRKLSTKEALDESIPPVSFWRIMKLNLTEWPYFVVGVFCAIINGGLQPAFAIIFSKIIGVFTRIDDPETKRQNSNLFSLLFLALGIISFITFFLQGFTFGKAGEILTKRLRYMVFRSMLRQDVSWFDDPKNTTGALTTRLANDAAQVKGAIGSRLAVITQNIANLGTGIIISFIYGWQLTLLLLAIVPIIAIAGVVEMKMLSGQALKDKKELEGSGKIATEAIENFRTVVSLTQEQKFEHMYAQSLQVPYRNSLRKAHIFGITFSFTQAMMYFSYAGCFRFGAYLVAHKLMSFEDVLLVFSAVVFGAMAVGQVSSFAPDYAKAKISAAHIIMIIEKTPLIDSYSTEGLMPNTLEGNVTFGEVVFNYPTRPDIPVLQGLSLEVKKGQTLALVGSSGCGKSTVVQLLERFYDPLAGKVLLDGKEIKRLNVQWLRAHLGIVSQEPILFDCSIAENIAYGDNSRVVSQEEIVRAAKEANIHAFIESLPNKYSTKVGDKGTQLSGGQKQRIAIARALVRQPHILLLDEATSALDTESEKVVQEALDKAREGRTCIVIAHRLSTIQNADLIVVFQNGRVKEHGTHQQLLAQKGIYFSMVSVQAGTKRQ

P-gp (ABCB1), sequence (P08183 whole entry): as above

Consider `CC(=O)OC[C@]12[C@H](OC(C)=O)C(=O)[C@@H]3[C@@H](O)[C@]1(OC3(C)C)[C@](C)(O)C[C@H](OC(C)=O)[C@@H]2OC(C)=O`, for which the logP in data set [1] was 3.3. Also, the Emax on P-gp (ABCB1) was 39%. Also, in data set [2], the Ki is 7.65 µM.
For `CC(=O)O[C@H]1[C@@H](O)C[C@@](C)(O)[C@]23OC(C)(C)[C@H](C[C@H](OC(=O)c4ccco4)[C@]12C)[C@H]3OC(=O)c1ccco1`, in that order: 4.3, 51.8% and 4.16 µM.
In the case of `CC(=O)O[C@H]1C[C@@](C)(O)[C@]23OC(C)(C)[C@H](C[C@H](OC(=O)c4ccco4)[C@]2(C)[C@H]1OC(C)=O)[C@H]3OC(=O)c1ccco1`, the logP in data set [1] came out at 5.1. In addition, the Emax on P-gp (ABCB1) worked out at 95.7%. Besides, the Ki in data set [2] was 2.91 µM.

Broadly, the logP is the decadic logarithm of the partition coefficient of the neutral form, usually between octanol and water. As usually defined, the Ki is the dissociation constant of the complex between target and ligand, obtained from inhibition or displacement.
